Data from patent US20240252501A1 (MORGANDANE SCIENTIFIC, LLC, priority 2016, published 2024).
Like-named read-outs stand apart in the source and are kept apart here.

Key:
[1] = Reported rivaroxaban serious bleeding adverse events; format: in vivo, human; details: concomitantly administered patients, who are 22% of total population receiving rivaroxaban
Text: 8, 2015, American Heart Association, Scientific Sessions 2015, and published at http://www.abstractsonline.com/pp8/#!/3795/presentation/37668).

[2] = Example 1 rivaroxaban-verapamil drug-drug interaction study: rivaroxaban plasma levels; format: in vivo, human; details: concomitant verapamil vs rivaroxaban alone
Experimental: Cmax and AUC values for each dose are calculated.

[3] = cited from earlier work
[4] = cited from earlier work; remark: listed apart in the source
[5] = Relationship between steady state rivaroxaban AUC and risk of major bleeding (FIG. 5); format: in vivo, human
Experimental: All show the geometric mean plus or minus one standard deviation. […] These four show the geometric mean and the full minimum and maximum subject value range.
Group “c” represents the average of the three subjects in Group “b” who had the highest AUCinf, which was about 8,143 μg·hr/L. The risk of major bleeding of the subjects in Group “c” were at least 5 times higher compared to the populations in Group “a” and not even visible on this scale.

[6] = Plasma rivaroxaban concentration-time data and noncompartmental PK: single 20 mg rivaroxaban alone (Period I) vs with steady-state verapamil 360 mg (Period III), mild renal impairment or normal renal function; details: for CL/F / half-life / Tmax: human, in vivo; for CL/F: CL/F/kg; for half-life: t1/2
Experimental: Subjects with either mild renal impairment or with normal renal function were enrolled.
Renal function of the subjects was determined by measuring creatinine clearance (CLcr) rates. Subjects who had CLCr≥90 ml/min were categorized as having normal renal function whereas subjects who had CLcr 50-79 ml/min were categorized as mild renal impaired. Blood samples were collected and processed according to the standard protocols.

prothrombin time = assay: Prothrombin time (STAR Neoplastin method); format: in vivo, human
Text: As used herein, the term “prothrombin time” (PT) refers to a blood test that measures how long it takes blood to clot. In some embodiments, a prothrombin time test can be used to measure of a patient's haemostasis. In some embodiments, PT can be used to measure the effectiveness or exposure to a blood clotting drug. Persons having skill in the art sometimes interchangeably refer to a PT test as an INR. […] Additionally, PT measurements are subject to variability based on the test reagent and laboratory test ranges determined by each institution.
(§1) Additional pharmacodynamic metrics are also gathered for each patient, including, but not limited to: prothrombin time (using the STAR Neoplastin® method) and Factor Xa activity.
Blood samples were collected and processed according to the standard protocols.

[7] = cited from earlier work; remark: listed apart in the source
[8] = fed subjects, studies 10989 and 11938, single 20 mg; cited from earlier work
Factor Xa [9] = biological target: T1, Factor Xa (Homo sapiens, UniProt P00742); details: 10 mg dose, cited from earlier work
T1 construct: host or cells: human subjects (ex vivo pharmacodynamics)

Factor Xa [10] = biological target: T1, Factor Xa; assay: Factor Xa activity in subjects; format: in vivo; details: concomitant verapamil vs rivaroxaban alone
Text: as §1

P-gp [11] = biological target: T2, P-gp (Homo sapiens, UniProt P08183); details: cell monolayers in vitro; cited from earlier work
[12] = in vivo; cited from earlier work
P-gp [13] = biological target: T2, P-gp; details: cited from earlier work
[14] = single 10 mg dose with a strong CYP3A4/Pgp inhibitor
[15] = Period III (rivaroxaban and verapamil), Group 2: Normal Renal Function, individual subjects

T1 sequence (P00742 235-488 limits assumed): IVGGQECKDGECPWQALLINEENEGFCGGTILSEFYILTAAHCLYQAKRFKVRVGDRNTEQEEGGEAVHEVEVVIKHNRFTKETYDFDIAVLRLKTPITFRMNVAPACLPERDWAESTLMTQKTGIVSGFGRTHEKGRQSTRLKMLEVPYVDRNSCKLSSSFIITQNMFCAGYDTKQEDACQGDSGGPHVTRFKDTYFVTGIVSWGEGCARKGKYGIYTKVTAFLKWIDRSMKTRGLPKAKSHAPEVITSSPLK
T1 sequence (P00742 41-179 partner limits assumed): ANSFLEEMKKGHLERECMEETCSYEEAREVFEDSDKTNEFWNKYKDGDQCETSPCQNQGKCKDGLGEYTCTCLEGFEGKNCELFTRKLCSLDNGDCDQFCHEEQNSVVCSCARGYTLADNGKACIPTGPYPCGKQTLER
T2 sequence (P08183 whole entry): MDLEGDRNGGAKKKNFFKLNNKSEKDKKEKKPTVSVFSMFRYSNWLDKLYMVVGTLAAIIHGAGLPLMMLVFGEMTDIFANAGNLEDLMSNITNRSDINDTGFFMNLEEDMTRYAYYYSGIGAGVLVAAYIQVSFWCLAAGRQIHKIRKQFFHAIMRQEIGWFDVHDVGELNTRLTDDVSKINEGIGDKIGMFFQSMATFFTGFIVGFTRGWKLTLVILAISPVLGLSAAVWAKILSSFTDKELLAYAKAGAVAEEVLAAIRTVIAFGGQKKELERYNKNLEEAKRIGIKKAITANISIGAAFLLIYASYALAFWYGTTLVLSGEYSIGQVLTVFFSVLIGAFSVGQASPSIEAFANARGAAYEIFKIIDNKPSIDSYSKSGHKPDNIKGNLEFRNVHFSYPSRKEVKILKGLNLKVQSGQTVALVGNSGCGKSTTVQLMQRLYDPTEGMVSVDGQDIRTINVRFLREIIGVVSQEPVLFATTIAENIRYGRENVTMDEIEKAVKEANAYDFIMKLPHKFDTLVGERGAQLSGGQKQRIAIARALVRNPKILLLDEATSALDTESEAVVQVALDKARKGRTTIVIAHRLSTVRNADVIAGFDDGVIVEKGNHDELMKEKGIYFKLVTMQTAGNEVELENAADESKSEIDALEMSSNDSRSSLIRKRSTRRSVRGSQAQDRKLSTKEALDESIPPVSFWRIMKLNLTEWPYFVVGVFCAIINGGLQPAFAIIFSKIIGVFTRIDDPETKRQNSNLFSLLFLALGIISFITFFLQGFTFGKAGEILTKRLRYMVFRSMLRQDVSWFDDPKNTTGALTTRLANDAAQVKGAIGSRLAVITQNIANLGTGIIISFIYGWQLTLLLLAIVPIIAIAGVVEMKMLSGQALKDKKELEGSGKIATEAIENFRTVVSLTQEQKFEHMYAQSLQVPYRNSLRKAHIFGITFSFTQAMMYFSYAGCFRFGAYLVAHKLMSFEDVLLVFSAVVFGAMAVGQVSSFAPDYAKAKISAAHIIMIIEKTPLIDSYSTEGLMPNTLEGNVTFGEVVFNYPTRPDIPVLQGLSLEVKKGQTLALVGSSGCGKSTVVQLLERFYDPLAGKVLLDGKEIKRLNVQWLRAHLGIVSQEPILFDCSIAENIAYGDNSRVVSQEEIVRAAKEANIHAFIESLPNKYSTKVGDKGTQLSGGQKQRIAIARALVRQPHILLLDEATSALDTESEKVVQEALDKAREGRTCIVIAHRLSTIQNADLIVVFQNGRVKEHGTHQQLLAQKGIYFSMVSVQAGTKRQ

O=C(NC[C@H]1CN(c2ccc(N3CCOCC3=O)cc2)C(=O)O1)c1ccc(Cl)s1 [rivaroxaban, Rivaroxaban]
share of reported rivaroxaban serious bleeding adverse events [1]: 30%
rivaroxaban plasma concentrations [2]: higher rivaroxaban plasma concentrations
Cmax, upper boundary of 90% confidence interval ([3]; 20 mg rivaroxaban with food, study 11938): 317 ng/mL
steady state AUC, upper bound of 90% confidence interval (Label A) ([3]; 20 mg rivaroxaban): about 3,792 μg·hr/L
steady state Cmax, upper bound of 90% confidence interval ([3]; 20 mg rivaroxaban): 275 ng/mL
Cmax [3, 14]: 268 ng/mL
estimated steady state AUC (Label B) [3, 14]: about 3,404 μg·hr/L
steady state AUC, upper boundary of 90% confidence interval (Label C) ([3]; single 20 mg dose after a meal): about 2,448 μg·hr/L
rivaroxaban dose eliminated in urine as unprocessed active drug ([4]; in vivo): ~36%
rivaroxaban dose eliminated through active renal secretion ([4]; in vivo): 30%
rivaroxaban dose eliminated through glomerular filtration ([4]; in vivo): 6%
share of rivaroxaban clearance by CYP3A4 ([4]; in vivo): approximately 18%
share of rivaroxaban metabolized by CYP2J2 ([4]; in vivo): 14%
rivaroxaban dose subject to metabolic degradation ([4]; liver oxidative and hydrolytic pathways): Approximately two-thirds
risk of major bleeding (Group a) ([5]; AUC approximately 2,026 μg·hr/L): about 3%
risk of major bleeding vs Group a (Group b) ([5]; mild renal impairment, 20 mg rivaroxaban and 360 mg verapamil): 2.5 times
risk of major bleeding vs Group a (Group c) ([5]; three Group b subjects with highest AUCinf): at least 5 times
CL/F/kg [6, 15]: 1.18 mL/min/kg
CL/F ([6]; 20 mg, Period I (rivaroxaban alone), Group 2: Normal Renal Function, outlier sample excluded, arithmetic mean): 1.8 mL/min/kg
half-life ([6]; 20 mg): 9.44 h
Tmax ([6]; 20 mg): 0.5 h
CL/F [6, 15]: 1.11 mL/min/kg
CL/F ([6]; Period III (rivaroxaban and verapamil), Group 2: Normal Renal Function, median): 1.11 mL/min/kg
half-life [6]: 6.56 h
Tmax [6]: 0.5 h
prothrombin time (PT) (prothrombin time; concomitant verapamil vs rivaroxaban alone): prolonged PT
relationship between pharmacokinetics (plasma concentration) and pharmacodynamics (PT) (prothrombin time; normal renal function and mild renal insufficiency, Day 1 and Day 15): clear linear relationship
rivaroxaban exposure increase ([7]; concomitant clarithromycin): 54%
rivaroxaban exposure increase ([7]; concomitant erythromycin): 34%
rivaroxaban exposure increase ([7]; concomitant fluconazole): 42%
AUC, average geometric mean (Group a) [8]: approximately 2,026 μg·hr/L
AUEC for Factor Xa inhibition vs healthy subjects (Factor Xa [9]; mild renal impairment): 1.5 fold
AUEC for Factor Xa inhibition vs healthy subjects (Factor Xa [9]; moderate renal impairment): 1.86 fold
AUEC for Factor Xa inhibition vs healthy subjects (Factor Xa [9]; severe renal impairment): 2.0 fold
Factor Xa inhibition (Factor Xa [10]): increased Factor Xa inhibition

CC[C@H]1OC(=O)[C@H](C)[C@@H](O[C@H]2C[C@@](C)(OC)[C@@H](O)[C@H](C)O2)[C@H](C)[C@@H](O[C@@H]2O[C@H](C)C[C@H](N(C)C)[C@H]2O)[C@](C)(O)C[C@@H](C)C(=O)[C@H](C)[C@@H](O)[C@]1(C)O [erythromycin]
inhibition of P-gp-mediated efflux of rivaroxaban (P-gp [11]): did not inhibit
renal elimination (unchanged) [12]: 2-15%

COc1ccc(CCNCCCC(C#N)(c2ccc(OC)c(OC)c2)C(C)C)cc1OC (centres unmarked) [norverapamil]
inhibitory potential toward P-gp (P-gp [13]): have inhibitory potential toward P-gp
